This is an account of results in patent EP3131902B1, “COMPOUNDS AS MODULATORS OF ROR GAMMA” (Boehringer Ingelheim International GmbH, priority 2014, dated 2015).

Each structure is given as a SMILES string. pIC50: −log10 of the molar value.

The target in one experiment is T1, RORγ (Homo sapiens, UniProt P51449).
T1 construct: expressed in transfected cells; host or cells: HEK 293 cells, transiently transfected
T1 sequence (P51449 269-508 limits assumed): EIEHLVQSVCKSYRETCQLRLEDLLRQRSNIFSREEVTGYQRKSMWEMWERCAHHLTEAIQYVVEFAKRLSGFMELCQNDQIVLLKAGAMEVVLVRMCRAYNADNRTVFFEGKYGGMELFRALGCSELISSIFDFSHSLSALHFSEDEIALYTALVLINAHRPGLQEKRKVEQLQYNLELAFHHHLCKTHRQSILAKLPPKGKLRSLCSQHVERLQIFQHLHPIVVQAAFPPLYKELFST
Kind of experiment: Reporter Gene Assay (RGA): nuclear receptor transactivation assay, inhibition of RORγ transactivation of a luciferase reporter in transiently transfected HEK 293 cells. It counts as cell-based.
Conditions: not given
(In general: In a reporter assay the amount or activity of a reporter protein is the signal.)
On to `CC[C@H](C)n1c(=O)c(NCc2ccc(S(N)(=O)=O)cn2)nc2cnc(-c3c(OC)ncnc3C3CC3)nc21` [Example 122], for which the pIC50 (usually the negative decadic logarithm of the IC50, by convention in mol/L) is 6.82.

Take `CCc1ncnc(C2CC2)c1-c1ncc2nc(NCc3ccc(S(C)(=O)=O)cc3)c(=O)n([C@H](C)CC)c2n1` [Example 191]: the pIC50 was 7.07.

`CCS(=O)(=O)c1ccc(CNc2nc3cnc(-c4c(OC)ncnc4C4CC4)nc3n(CC(C)(C)F)c2=O)nc1` [Example 106] had a pIC50 of 5.94.

Staying with this experiment, now noted: read-out: RGA IC50.
In the case of `CCS(=O)(=O)c1ccc(CNc2nc3cnc(-c4c(C)ncnc4C4CC4)nc3n([C@H]3CCC[C@@H]3C#N)c2=O)nc1` [Example 112], the pIC50 is 6.04.

On to `CCS(=O)(=O)c1ccc(CNc2nc3cnc(-c4c(C)ncnc4C4CC4)nc3n(C3CCCC3=O)c2=O)nc1` (stereo not drawn) [Example 119], for which the pIC50 was 6.14.

For the compound `COc1ncnc(C2CC2)c1-c1ncc2nc(NCc3ccc(S(N)(=O)=O)cn3)c(=O)n(CC3CCC3)c2n1` [Example 116], the pIC50 was 6.52.

As for `COc1ncnc(C2CC2)c1-c1ncc2nc(NCc3ccc(S(C)(=O)=O)cn3)c(=O)n([C@@H](C)C(F)(F)F)c2n1` [Example 181], the pIC50 was 6.76.

With `COC(=O)c1ccc(CNc2nc3cnc(-c4c(C)ncnc4C4CC4)nc3n([C@@H](C)C3CC3)c2=O)cc1` [Example 216], the pIC50 is 5.86.

For the compound `CCS(=O)(=O)c1ccc(CNc2nc3cnc(-c4c(OC)ncnc4C4CC4)nc3n(CC(C)C)c2=O)cn1` [Example 154], the pIC50 was 6.53.

Take `CC[C@@H](C)n1c(=O)c(NCc2ncc(S(=O)(=O)CC)cn2)nc2cnc(-c3c(C4CC4)ncnc3C3CC3)nc21` [Example 186]: the pIC50 is 6.82.

On to `CCS(=O)(=O)c1cnc(CNc2nc3cnc(-c4c(C)ncnc4C4CC4)nc3n([C@@H](C)C(F)(F)F)c2=O)nc1` [Example 188], for which the pIC50 is 6.50.

Turning to `Cc1ncnc(C2CC2)c1-c1ncc2nc(NCc3ccc(S(C)(=N)=O)cc3)c(=O)n([C@@H](C)C3CC3)c2n1` (stereo partly drawn) [Example 160], the negative-log IC50 (pIC50) is 6.55.

On to `Cc1ncnc(C2CC2)c1-c1ncc2nc(NCC3CCN(S(=O)(=O)CC#N)CC3)c(=O)n([C@@H](C)C3CC3)c2n1` [Example 165], for which the pIC50 was 6.80.

`CCS(=O)(=O)c1ccc(CNc2nc3cnc(-c4c(OC)ncnc4C4CC4)nc3n(C3CCCC3=O)c2=O)nc1` (stereo not drawn) [Example 120]: the pIC50 was 6.38.

Regarding `CC[C@@H](C)n1c(=O)c(NCc2ccc(S(N)(=O)=O)cn2)nc2cnc(-c3c(C)nc(N)nc3C3CC3)nc21` [Example 129], the pIC50 is 5.60.

In the case of `Cc1ncnc(C2CC2)c1-c1ncc2nc(NCc3ccc(S(C)(=N)=O)cc3)c(=O)n([C@@H](C)C3CCC3)c2n1` (stereo partly drawn) [Example 232], the pIC50 was 6.74.

`COCCS(=O)(=O)N1CCC(CNc2nc3cnc(-c4c(OC)ncnc4C4CC4)nc3n([C@@H](C)C3CC3)c2=O)CC1` [Example 169]: the pIC50 is 6.84.

For the compound `CCS(=O)(=O)c1ccc(CNc2nc3cnc(-c4c(C)ncnc4C4CC4)nc3n(-c3ccccc3)c2=O)nc1` [Example 48], the pIC50 is 5.42.

Turning to `CCS(=O)(=O)N1CCC(CNc2nc3cnc(-c4c(OC)ncnc4C4CC4)nc3n([C@H](C)C3CC3)c2=O)CC1` [Example 76], the pIC50 was 5.80.

For `COc1ncnc(C2CC2)c1-c1ncc2nc(NCc3ccc(S(C)(=O)=O)cn3)c(=O)n(C(C)C)c2n1` [Example 149], the pIC50 is 6.52.

In the case of `CCS(=O)(=O)c1ccc(CNc2nc3cnc(-c4c(C)nc(N)nc4C4CC4)nc3n([C@H](C)C3CCC3)c2=O)nc1` [Example 233], the pIC50 is 6.81.

For the compound `CC[C@H](C)n1c(=O)c(NCc2ccc(S(=O)(=O)CC)cn2)nc2cnc(-c3c(C)ncnc3C3CC3)nc21` [Example 20], the pIC50 was 6.48.

Consider `CC[C@@H](C)n1c(=O)c(NCc2ccc(S(=O)(=O)CC)cn2)nc2cnc(-c3c(C)ncnc3C3CC3)nc21` [Example 84], for which the pIC50 was 6.40.

Turning to `CC[C@@H](C)n1c(=O)c(NCc2ccc(S(N)(=O)=O)cn2)nc2cnc(-c3c(OC)ncnc3C3CC3)nc21` [Example 236], the pIC50 is 6.73.

Turning to `COc1ncnc(C2CC2)c1-c1ncc2nc(NCc3ccc(S(N)(=O)=O)cn3)c(=O)n(CC(C)C)c2n1` [Example 255], the pIC50 was 6.55.

As for `CCS(=O)(=O)c1ccc(CNc2nc3cnc(-c4c(C)ncnc4C4CC4)nc3n(CC(C)(C)F)c2=O)nc1` [Example 105], the pIC50 is 5.80.

On to `COc1cc(C#N)ccc1CNc1nc2cnc(-c3c(C)ncnc3C3CC3)nc2n([C@@H](C)C2CC2)c1=O` [Example 133], for which the pIC50 is 5.99.

For the compound `CCS(=O)(=O)c1ccc(CNc2nc3cnc(-c4c(OC)ncnc4C4CC4)nc3n(C3(C#N)CC3)c2=O)nc1` [Example 50], the pIC50 is 5.36.

`CCS(=O)(=O)c1ccc(CNc2nc3cnc(-c4c(C)ncnc4C(C)C)nc3n(C(C)C)c2=O)nc1` [Example 178]: the pIC50 is 6.62.

For the compound `CNS(=O)(=O)c1ccc(CNc2nc3cnc(-c4c(OC)ncnc4C4CC4)nc3n(C3CCC3)c2=O)nc1` [Example 239], the pIC50 is 6.69.

On to `CCS(=O)(=O)c1ccc(CNc2nc3cnc(-c4c(C5CC5)ncnc4C4CC4)nc3n([C@H](C)C(C)C)c2=O)nc1` [Example 25], for which the pIC50 was 6.39.

For `CC[C@@H](C)n1c(=O)c(NCc2ccc(S(C)(=O)=O)cc2)nc2cnc(-c3c(C)ncnc3C3CC3)nc21` [Example 189], the pIC50 is 6.92.

For `CC[C@H](C)n1c(=O)c(NCc2ccc(S(N)(=O)=O)cn2)nc2cnc(-c3c(C)ncnc3C3CC3)nc21` [Example 98], the pIC50 is 6.71.

As for `CCS(=O)(=O)N1CC2(CC(CNc3nc4cnc(-c5c(OC)ncnc5C5CC5)nc4n([C@@H](C)C4CC4)c3=O)C2)C1` [Example 152], the pIC50 was 6.33.

As to `CC[C@@H](C)n1c(=O)c(NCc2ccc(S(N)(=O)=O)cn2)nc2cnc(-c3c(C)ncnc3C3CC3)nc21` [Example 235], the pIC50 is 6.37.

As to `Cc1ncnc(C2CC2)c1-c1ncc2nc(NCc3ccc4c(c3)CCS4(=O)=O)c(=O)n([C@@H](C)C3CC3)c2n1` [Example 212], the pIC50 is 6.92.

Turning to `CCS(=O)(=O)c1ccc(CNc2nc3cnc(-c4c(C)ncnc4C4CC4)nc3n([C@H]3CCC[C@H]3C#N)c2=O)nc1` [Example 111], the pIC50 is 6.34.

For `CNS(=O)(=O)c1ccc(CNc2nc3cnc(-c4c(OC)ncnc4C4CC4)nc3n(C(C)C)c2=O)nc1` [Example 155], the pIC50 was 6.73.

In the case of `Cc1ncnc(C2CC2)c1-c1ncc2nc(NCc3ccc(S(=O)(=O)CC#N)cc3)c(=O)n(C(C)C)c2n1` [Example 171], the pIC50 is 6.70.

As to `COc1ncnc(C2CC2)c1-c1ncc2nc(NCc3ccc(S(C)(=O)=O)cc3)c(=O)n([C@H]3CCC[C@@H]3OC)c2n1` [Example 230], the pIC50 is 6.57.

With `CCS(=O)(=O)c1ccc(CNc2nc3cnc(-c4c(C5CC5)ncnc4C4CC4)nc3n(C3CCCC3)c2=O)nc1` [Example 13], the pIC50 was 6.52.

Turning to `CCS(=O)(=O)c1ccc(CNc2nc3cnc(-c4c(OC)ncnc4C4CC4)nc3n(C3CC3)c2=O)cc1` [Example 43], the pIC50 is 5.59.
